Laboratory results from ChEMBL document CHEMBL4261614, “Discovery of traditional Chinese medicine monomers and their synthetic intermediates, analogs or derivatives for battling P-gp-mediated multi-drug resistance” (Eur J Med Chem, 2018).

How the values were obtained:
Homo sapiens = organism: Homo sapiens; assay: Inhibition of P-gp in human KBv200 cells assessed as potentiation of vincristine-induced cytotoxicity by measuring reduction in vincristine IC50 at 25 uM after 96 hrs by […] relative to vincristine alone; format: cell-based
[1] = molecular target: ATP-dependent translocase ABCB1 (Homo sapiens, UniProt P08183); assay: Inhibition of MDR1 (unknown origin) expressed in MDCK-MDR1 cells assessed as increase in Rh123 accumulation at 100 uM after 30 mins by spectrofluorometric analysis relative to control; format: cell-based; details: mdck-mdr1, 0.5 h
Chain of ATP-dependent translocase ABCB1 (P08183 whole entry): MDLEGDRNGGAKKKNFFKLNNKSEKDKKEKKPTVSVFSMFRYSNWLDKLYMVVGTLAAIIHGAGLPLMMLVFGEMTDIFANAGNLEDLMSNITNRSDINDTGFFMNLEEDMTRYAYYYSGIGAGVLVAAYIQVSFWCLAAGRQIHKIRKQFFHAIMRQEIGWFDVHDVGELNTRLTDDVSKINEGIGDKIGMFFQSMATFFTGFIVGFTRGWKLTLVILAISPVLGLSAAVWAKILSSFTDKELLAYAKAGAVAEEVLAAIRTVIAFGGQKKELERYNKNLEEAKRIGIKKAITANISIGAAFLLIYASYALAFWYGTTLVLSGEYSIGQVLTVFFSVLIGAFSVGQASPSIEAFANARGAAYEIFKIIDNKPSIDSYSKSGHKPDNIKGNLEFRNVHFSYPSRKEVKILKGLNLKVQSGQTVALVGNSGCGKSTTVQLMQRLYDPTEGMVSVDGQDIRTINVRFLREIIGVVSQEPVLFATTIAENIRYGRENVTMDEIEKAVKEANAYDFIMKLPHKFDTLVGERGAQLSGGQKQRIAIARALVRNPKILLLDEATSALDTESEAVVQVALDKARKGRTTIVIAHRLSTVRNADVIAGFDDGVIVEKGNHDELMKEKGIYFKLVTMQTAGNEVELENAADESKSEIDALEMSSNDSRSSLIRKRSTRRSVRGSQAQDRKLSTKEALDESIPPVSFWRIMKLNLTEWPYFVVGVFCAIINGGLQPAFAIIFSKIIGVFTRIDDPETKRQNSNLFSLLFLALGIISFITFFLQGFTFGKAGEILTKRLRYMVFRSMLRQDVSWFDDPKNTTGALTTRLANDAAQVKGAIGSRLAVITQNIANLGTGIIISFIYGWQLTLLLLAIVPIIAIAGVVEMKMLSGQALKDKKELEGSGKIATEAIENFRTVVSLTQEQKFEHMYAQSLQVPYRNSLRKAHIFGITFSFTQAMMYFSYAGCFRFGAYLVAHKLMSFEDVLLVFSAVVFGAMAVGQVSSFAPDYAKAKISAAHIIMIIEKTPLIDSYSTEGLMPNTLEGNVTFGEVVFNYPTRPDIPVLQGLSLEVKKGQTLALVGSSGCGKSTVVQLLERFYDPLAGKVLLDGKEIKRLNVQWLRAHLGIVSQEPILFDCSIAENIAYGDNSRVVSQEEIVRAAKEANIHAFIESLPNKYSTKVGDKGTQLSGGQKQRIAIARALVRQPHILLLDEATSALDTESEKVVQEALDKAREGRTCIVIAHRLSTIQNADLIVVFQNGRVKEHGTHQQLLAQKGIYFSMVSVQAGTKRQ

SMILES	Ratio IC50 (Homo sapiens)	fold change (FC) [1]
COc1cc2c(c(OC)c1OC)-c1c(cc(OC)c(OC)c1OC)C[C@](C)(O)[C@@H](C)C2	3.8	
COc1cc2c(c(OC)c1OC)-c1c(cc3c(c1OC)OCO3)CC(C)C(C)C2 (centres undefined)	23.5	
COc1cc2c(c(OC)c1OC)-c1c(cc(OC)c(OC)c1OC)C[C@H](C)[C@H](C)C2	309	
CC(C)C(=O)OC(C)(C)[C@@H]1Cc2c(ccc3ccc(=O)oc23)O1		9
